Legend:
[1] = Stability of DAC, 2dC, and 5mC (LC-MS/MS); assay type: physicochemical; conditions: for Digest Buffers Stability (−70° C.) (35 Days) (%): digest buffer; for Stock Stability (27 Days) (%): Stock solution in water 1 mg/mL, −20° C. printed for DAC only
Experimental: (§1) Standards and quality control (QCs) samples were prepared by adding known concentrations of analytes into blank digest matrix (all solvents used during the DNA digest except for the enzymes). All digested DNA samples, standards and QCs were prepared for analysis by adding 20 μL internal standard (5AC-^15N4, 2dC-^13C^15N2 and 5mC-d3 in water) to 100 μL of sample and vortex-mix briefly. The internal standard in the range of 5 μL, 10 μL, or 15 μL to 20 μL, 25 μL, 30 μL, or 35 μL could be added to a sample. The sample could be in the range of 85 μL, 90 μL, or 95 μL to 100 μL, 105 μL, 110 μL, or 110 μL. The samples were injected onto a LC-MS system containing a Waters Acquity UPLC (Milford, Mass.) interfaced with an AB Sciex 5500 triple quadruple mass spectrometer (Foster City, Calif.). Chromatographic separation was achieved using Thermo Hypercarb porous graphite analytical column (100×2.1 mm, 5 μm, Waltham, Mass.) running isocratic with 10 mM ammonium acetate-acetonitrile-formic acid (70:30:0.1, v/v) with a flow rate of […]. The mass spectrometer was run in positive electrospray ionization mode with follow MRM transitions: DAC: 228.9→113.0, 2dC: 228.0→112.0, 5mC: 242.0→126.0, 5AC-^15N4 (internal standard): 249.0→117.0, 2dC-^13C^15N2 (internal standard) 230.8→115.0 and 5mC-d3 (internal standard) 245.8→129.0. The calibration range was 2-400 ng/mL for DAC, 5-1,000 ng/mL for 5mC, and 50-10,000 ng/mL for 2dC. All analytes were quantified using quadratic regression with 1/x^2 weighing.
A LC-MS/MS method was developed and validated to determine DAC, 2dC, and 5mC concentrations in DNA digest matrix (FIGS. 1-3). No major interferences were observed from blank matrix (FIGS. 1 and 2). Samples can be stored as the single dephosphorylated nucleotides for up to 35 days. The method has been applied in vitro to untreated (FIG. 4) and DAC treated cells (FIG. 5).

colon tissue = test: DAC and 5mC content in genomic DNA of colon cells from mice treated with DAC; assay type: in vivo; conditions: DAC 1, 2 or 5 mg/kg intraperitoneal, 10 doses (FIG. 7)
Experimental: (§2) Genomic DNA was suspended in 50 μL of HPLC grade water, and digested with 4 Units of Nuclease P1 (Sigma Aldrich) at 65° C. for 10 minutes in a digestion buffer containing 0.04 mM DFAM, 3.25 mM ammonium acetate pH 5.0, 0.5 mM zinc chloride in a final volume of 100 μL. 20 μL of 100 mM Trizma base, pH 8.5 was added and this reaction was treated with 4 Units of Alkaline Phosphatase at 37° C. for 1 hour. Following incubation, 20 μL of 300 mM ammonium acetate, pH 5.0 and 6 μL of 0.25 mM DFAM/50 mM ethylenediaminetetraacetic acid was added to stop digestion.
(§3) Standards and quality control (QCs) samples were prepared by adding known concentrations of analytes into blank digest matrix (all solvents used during the DNA digest except for the enzymes). All digested DNA samples, standards and QCs were prepared for analysis by adding 20 μL internal standard (5AC-^15N4, 2dC-^13C^15N2 and 5mC-d3 in water) to 100 μL of sample and vortex-mix briefly. The internal standard in the range of 5 μL, 10 μL, or 15 μL to 20 μL, 25 μL, 30 μL, or 35 μL could be added to a sample. […] All analytes were quantified using quadratic regression with 1/x^2 weighing. […]
(§4) DAC (1, 2 or 5 mg/kg) (Sigma-Aldrich) or vehicle was administered via daily intraperitoneal injection. […] DAC, 2dC, and 5mC were measured using our LC-MS/MS analytical approach.

[2] = due to deamination to 5-aza-2′-deoxyuridine; cited from earlier work
whole bone marrow cells = test: DAC and 5mC content in genomic DNA of bone marrow cells from mice treated with DAC; assay type: in vivo; conditions: DAC 1, 2 or 5 mg/kg intraperitoneal, 10 doses (FIG. 7)
Experimental: as §2, §3, §4

[3] = system: DU145 human prostate cancer cells; test: DAC incorporation into genomic DNA of DU145 cells (LC-MS/MS); assay type: cell-based
Experimental: as §2, §1
DU145 prostate cancer cells were cultured in RPMI-1640, supplemented with 5% fetal bovine serum (Invitrogen). DAC was dissolved in DMSO and added to the culture at varying concentrations. The same volume of DMSO was added as a control. Cells were allowed to grow for 48 hr. An independent experiment was performed in three replicates. Following cell harvest, genomic DNA isolation, digestion to single dephosphorylated nucleotides according to our described protocols, DAC and 2dC content were determined using our LC-MS/MS analytical approach.

[4] = DU145 cells treated with 500 nM DAC (FIG. 5)

Row | Reinjection Stability (5 Days) (5° C.) (%) ([1]; High QC) | Digest Buffers Stability (−70° C.) (35 Days) (%) ([1]; High QC) | Reinjection Stability (5 Days) (5° C.) (%) ([1]; Low QC) | Digest Buffers Stability (−70° C.) (35 Days) (%) ([1]; Low QC) | Stock Stability (27 Days) (%) [1] | SMILES | 5mC content (per thousand 2dC) relative to DAC incorporation (colon tissue) | DAC incorporation into genomic DNA (DAC per thousand 2dC) (colon tissue) | plasma half-life [2] | DAC incorporation into genomic DNA (DAC per thousand 2dC) (whole bone marrow cells) | concentration of 2dC in digested genomic DNA [3, 4] | concentration of 5mC in digested genomic DNA [3, 4] | concentration of DAC in digested genomic DNA [3, 4] | amount of DAC per thousand 2dC versus initial treatment dose ([3]; increasing doses of DAC, 48 hours, three replicates (FIG. 6))
1 | 106.0% | 99% | 108.0% | 107.2% | 98.7% | Nc1ccn([C@H]2C[C@H](O)[C@@H](CO)O2)c(=O)n1 [2dC, 2′-deoxycytidine] |  |  |  |  |  |  |  | 
2 | 92.5% | 103.2% | 88.6% | 101.8% | 94.8% | Nc1ncn([C@H]2C[C@H](O)[C@@H](CO)O2)c(=O)n1 [DAC, 5-aza-2′-deoxycytidine] | inversely correlated with DAC incorporation | dose responsive increase in incorporation | 15 to 25 min | dose responsive increase in incorporation | 1250 ng/mL | 27.4 ng/mL | 2.8 ng/mL | strong linear correlation

— patent publication US11035850B2, “Quantitative determination of nucleoside analogue drugs in genomic DNA or RNA” (THE JOHNS HOPKINS UNIVERSITY, priority 2016, dated 2021)
